Measured values: ChEMBL document CHEMBL1133416, “Solid phase synthesis of diamides as potential bone resorption inhibitors” (Bioorg Med Chem Lett, 2000)

What was measured:
[1] = biological target: T1, Adenosinetriphosphatase (Gallus gallus, UniProt Q9I8A2); assay: Compound was tested for in vitro inhibition of osteoclast vacuolar acid pump; type: functional
[2] = Compound was tested at 9 uM for inhibition of V-ATPase mediated proton transport in membrane vesicles derived from chicken medullary bone
[3] = biological target: T1, Adenosinetriphosphatase; assay: Compound was tested for inhibition of osteoclast vacuolar ATPase derived from chicken medullary bone

T1 sequence (Q9I8A2 whole entry): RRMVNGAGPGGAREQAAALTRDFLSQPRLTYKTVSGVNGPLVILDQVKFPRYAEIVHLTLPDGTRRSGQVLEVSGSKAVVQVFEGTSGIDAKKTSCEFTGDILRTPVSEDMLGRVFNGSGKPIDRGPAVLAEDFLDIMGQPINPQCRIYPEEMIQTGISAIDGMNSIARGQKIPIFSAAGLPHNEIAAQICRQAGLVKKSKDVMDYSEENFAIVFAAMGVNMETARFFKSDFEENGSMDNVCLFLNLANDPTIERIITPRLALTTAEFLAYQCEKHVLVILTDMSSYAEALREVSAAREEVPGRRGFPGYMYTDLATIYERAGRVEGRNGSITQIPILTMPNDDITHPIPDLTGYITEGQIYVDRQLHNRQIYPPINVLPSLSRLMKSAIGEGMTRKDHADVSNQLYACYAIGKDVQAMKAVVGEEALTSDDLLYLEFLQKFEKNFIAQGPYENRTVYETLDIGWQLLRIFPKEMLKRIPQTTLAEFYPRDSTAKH

CC1(C)CC(NC(=O)c2cccc(CC(=O)Nc3ccc(Cl)c(Cl)c3)c2)CC(C)(C)N1
IC50 [1]: 4.9 µM

CC1(C)CC(NC(=O)/C=C/C=C/C(=O)Nc2ccc(Cl)c(Cl)c2)CC(C)(C)N1
IC50 [1]: 1.5 µM
inhibition [2]: 51%

CO/C1=C\C(C)=C\[C@@H](C)[C@@H](O)[C@@H](C)C/C(C)=C/C=C/[C@H](OC)[C@@H]([C@@H](C)[C@@H](O)[C@H](C)[C@@]2(O)C[C@@H](O)[C@H](C)[C@@H](C(C)C)O2)OC1=O [BAFILOMYCIN A1]
IC50 [3]: 0.03 µM

CO/C(=C\C=C\c1cc2cc(Cl)c(Cl)cc2[nH]1)C(=O)NC1CC(C)(C)NC(C)(C)C1
IC50 [3]: 0.049 µM
